Measurements reported in publication PMC6514978, “Synthesis, Antibacterial Activities, Mode of Action and Acute Toxicity Studies of New Oxazolidinone-Fluoroquinolone Hybrids” (Molecules, 2019).
Converted amounts (≈) assume the structure as drawn.

How the values were obtained:
MRSE = experiment: MIC against drug-resistant strain; assay type: cell-based, S. epidermidis; conditions: Staphylococcus epidermidis, read-out: MIC
Experimental: (§1) 6 standard strains and 3 clinical isolates were used to the preliminary evaluation of in vitro antibacterial activities of oxazolidinone-fluoroquinolone hybrids.
(§2) Susceptibility testing of oxazolidinone-fluoroquinolone hybrids against various bacteria was performed by the broth microdilution method as outlined by the Clinical and Laboratory Standards Institute (CLSI). Three types of media, including cation-adjusted Mueller Hinton broth, Haemophilus Test Medium and cation-adjusted Mueller Hinton broth that contained 3%–5% lysed horse blood, were used to culture the corresponding bacteria. […] A final inoculum of 5 × 10^5 CFU/mL was used and plates were read after incubation for 16–24 h at 35 °C. […] Standard quality control strains (ATCC) were included throughout. Each determination was repeated in triplicate.

[1] = test system: E. faecium (47) clinical isolates; experiment: Susceptibility of clinical isolates (MIC); assay type: cell-based, Enterococcus faecium; conditions: for MIC Range / MIC50 / MIC90: E. faecium, 47 clinical isolates; for MIC50 / MIC90: Enterococcus faecium; for MIC50: read-out: MIC50; for MIC90: read-out: MIC90
Experimental: as §2

[2] = test system: VAN and quinolone-resistant S. pneumoniae; experiment: MIC against drug-resistant strain; assay type: cell-based; conditions: Streptococcus pneumoniae; S. pneumoniae, VAN and quinolone-resistant; read-out: MIC
Experimental: as §1, §2

CIP-resistant S. aureus = experiment: MIC against drug-resistant strain; assay type: cell-based; conditions: Staphylococcus aureus; S. aureus, CIP-resistant; read-out: MIC
Experimental: as §1, §2

[3] = test system: VAN and quinolone-resistant E. faecium; experiment: MIC against drug-resistant strain; assay type: cell-based; conditions: Enterococcus faecium; E. faecium, VAN and quinolone-resistant; read-out: MIC
Experimental: as §1, §2

[4] = test system: LZD and quinolone-resistant E. faecium; experiment: MIC against drug-resistant strain; assay type: cell-based; conditions: Enterococcus faecium; E. faecium, LZD and quinolone-resistant; read-out: MIC
Experimental: as §1, §2

[5] = test system: CIP-resistant S. haemolyticus; experiment: MIC against drug-resistant strain; assay type: cell-based; conditions: Staphylococcus haemolyticus; S. haemolyticus, CIP-resistant; read-out: MIC
Experimental: as §1, §2

MRSA = experiment: MIC against drug-resistant strain; assay type: cell-based; conditions: Staphylococcus aureus, read-out: MIC
Experimental: as §1, §2

[6] = test system: S. epidermidis (10) clinical isolates; experiment: Susceptibility of clinical isolates (MIC); assay type: cell-based, Staphylococcus epidermidis; conditions: for MIC50 / MIC90 / MIC: Staphylococcus epidermidis, S. epidermidis, 10 clinical isolates; for MIC50: read-out: MIC50; for MIC90: read-out: MIC90; for MIC: read-out: MIC Range
Experimental: as §2

[7] = test system: S. haemolyticus (32) clinical isolates; experiment: Susceptibility of clinical isolates (MIC); assay type: cell-based, Staphylococcus haemolyticus; conditions: for MIC50 / MIC90 / MIC: Staphylococcus haemolyticus, S. haemolyticus, 32 clinical isolates; for MIC50: read-out: MIC50; for MIC90: read-out: MIC90; for MIC: read-out: MIC Range
Experimental: as §2

[8] = test system: H. parasuis (34) clinical isolates; experiment: Susceptibility of clinical isolates (MIC); assay type: cell-based, Haemophilus parasuis; conditions: H. parasuis, 34 clinical isolates; for MIC50 / MIC90: Glaesserella parasuis; for MIC50: read-out: MIC50; for MIC90: read-out: MIC90
Experimental: as §2

[9] = test system: S. suis (9) clinical isolates; experiment: Susceptibility of clinical isolates (MIC); assay type: cell-based, Streptococcus suis; conditions: Streptococcus suis, S. suis, 9 clinical isolates; for MIC50: read-out: MIC50; for MIC90: read-out: MIC90; for MIC: read-out: MIC Range
Experimental: as §2

[10] = test system: S. pneumoniae (13) clinical isolates; experiment: Susceptibility of clinical isolates (MIC); assay type: cell-based, Streptococcus pneumoniae; conditions: for MIC50 / MIC90: Streptococcus pneumoniae; for MIC50: read-out: MIC50; for MIC90: read-out: MIC90
Experimental: as §2

[11] = test system: LZD-resistant E. faecalis; experiment: microbe, parasite or virus in culture; assay type: cell-based; conditions: Enterococcus faecalis
Experimental: as §1, §2

[12] = test system: E. faecalis (72) clinical isolates; experiment: Susceptibility of clinical isolates (MIC); assay type: cell-based, Enterococcus faecalis; conditions: for MIC Range / MIC50 / MIC90: E. faecalis, 72 clinical isolates; for MIC50 / MIC90: Enterococcus faecalis
Experimental: as §2

[13] = test system: S. aureus (46) clinical isolates; experiment: Susceptibility of clinical isolates (MIC); assay type: cell-based, Staphylococcus aureus; conditions: for MIC50 / MIC90 / MIC: Staphylococcus aureus, S. aureus, 46 clinical isolates; for MIC50: read-out: MIC50; for MIC90: read-out: MIC90; for MIC: read-out: MIC Range
Experimental: as §2

[14] = S. pneumoniae, 13 clinical isolates
[15] = E. faecium clinical isolates, CLSI criteria
[16] = S. epidermidis clinical isolates, CLSI criteria
[17] = S. haemolyticus clinical isolates, CLSI criteria
[18] = S. pneumoniae clinical isolates, CLSI criteria
[19] = S. aureus clinical isolates, CLSI criteria

## CC1CCc2c(N3CCC(O)CC3)c(F)cc3c(=O)c(C(=O)O)cn1c23 (centres unmarked) [NDFX, nadifloxacin]
MRSE
  MIC: 0.125 µg/mL (≈ 0.347 µM)
[1]
  MIC Range: 0.5 to 16 µg/mL
  MIC50: 2 µg/mL (≈ 5.55 µM)
  MIC90: 8 µg/mL (≈ 22.2 µM)
[2]
  MIC: > 32 µg/mL
CIP-resistant S. aureus
  MIC: 0.5 µg/mL (≈ 1.39 µM)
[3]
  MIC: 32 µg/mL (≈ 88.8 µM)
[4]
  MIC: 16 µg/mL (≈ 44.4 µM)
[5]
  MIC: 4 µg/mL (≈ 11.1 µM)
MRSA
  MIC: ≤ 0.0625 µg/mL
[6]
  MIC50: 1 µg/mL (≈ 2.77 µM)
  MIC90: 2 µg/mL (≈ 5.55 µM)
  MIC: 0.0625 to 2 µg/mL (≈ 0.173 to 5.55 µM)
[7]
  MIC50: ≤ 0.0625 µg/mL
  MIC90: 0.5 µg/mL (≈ 1.39 µM)
  MIC: 0.0625 to 4 µg/mL (≈ 0.173 to 11.1 µM)
[8]
  MIC50: ≤ 0.0625 µg/mL
  MIC90: 1 µg/mL (≈ 2.77 µM)
  MIC Range: ≤0.0625 to 1 µg/mL
[9]
  MIC50: ≤ 0.0625 µg/mL
  MIC90: 2 µg/mL (≈ 5.55 µM)
  MIC: 0.0625 to 4 µg/mL (≈ 0.173 to 11.1 µM)
[10]; [14]
  MIC50: 16 µg/mL (≈ 44.4 µM)
  MIC90: > 32 µg/mL
[11]
  MIC: 1 µg/mL (≈ 2.77 µM)
[12]
  MIC Range: 0.125 to 2 µg/mL
  MIC50: 0.25 µg/mL (≈ 0.694 µM)
  MIC90: 1 µg/mL (≈ 2.77 µM)
[13]
  MIC50: 0.5 µg/mL (≈ 1.39 µM)
  MIC90: 0.5 µg/mL (≈ 1.39 µM)
  MIC: 0.0625 to 2 µg/mL (≈ 0.173 to 5.55 µM)

## COc1c(N2CCNC(C)C2)c(F)cc2c(=O)c(C(=O)O)cn(C3CC3)c12 (centres unmarked) [GAFX, gatifloxacin]
MRSE
  MIC: ≤ 0.0625 µg/mL
[1]; [15]
  CLSI %R (resistant): 13.8%
  CLSI %S (susceptible): 86.2%
[1]
  MIC Range: 0.25 to 8 µg/mL
  MIC50: 1 µg/mL (≈ 2.66 µM)
  MIC90: 8 µg/mL (≈ 21.3 µM)
[2]
  MIC: > 32 µg/mL
CIP-resistant S. aureus
  MIC: 2 µg/mL (≈ 5.33 µM)
[3]
  MIC: 16 µg/mL (≈ 42.6 µM)
[4]
  MIC: 8 µg/mL (≈ 21.3 µM)
[5]
  MIC: 2 µg/mL (≈ 5.33 µM)
MRSA
  MIC: 0.125 µg/mL (≈ 0.333 µM)
[6]; [16]
  CLSI %R (resistant): 50.0%
  CLSI %S (susceptible): 30.0%
[6]
  MIC50: 1 µg/mL (≈ 2.66 µM)
  MIC90: 2 µg/mL (≈ 5.33 µM)
  MIC: 0.125 to 2 µg/mL (≈ 0.333 to 5.33 µM)
[7]; [17]
  CLSI %R (resistant): 3.8%
  CLSI %S (susceptible): 96.2%
[7]
  MIC50: 0.125 µg/mL (≈ 0.333 µM)
  MIC90: 0.25 µg/mL (≈ 0.666 µM)
  MIC: 0.0625 to 2 µg/mL (≈ 0.166 to 5.33 µM)
[8]
  MIC50: ≤ 0.0625 µg/mL
  MIC90: 1 µg/mL (≈ 2.66 µM)
  MIC Range: ≤0.0625 to 1 µg/mL
[9]
  MIC50: ≤ 0.0625 µg/mL
  MIC90: 4 µg/mL (≈ 10.7 µM)
  MIC: 0.0625 to 4 µg/mL (≈ 0.166 to 10.7 µM)
[10]; [18]
  CLSI %R (resistant): 92.3%
  CLSI %S (susceptible): 7.7%
[10]; [14]
  MIC Range: 4 to 32 µg/mL
  MIC50: 4 µg/mL (≈ 10.7 µM)
  MIC90: 32 µg/mL (≈ 85.2 µM)
[11]
  MIC: 0.5 µg/mL (≈ 1.33 µM)
[12]; E. faecalis clinical isolates, CLSI criteria
  CLSI %S (susceptible): 94.6/- %
[12]
  MIC Range: 0.125 to 2 µg/mL
  MIC50: 0.25 µg/mL (≈ 0.666 µM)
  MIC90: 0.5 µg/mL (≈ 1.33 µM)
[13]; [19]
  CLSI %R (resistant): 42.4%
  CLSI %S (susceptible): 45.5%
[13]
  MIC50: 1 µg/mL (≈ 2.66 µM)
  MIC90: 2 µg/mL (≈ 5.33 µM)
  MIC: 0.0625 to 2 µg/mL (≈ 0.166 to 5.33 µM)
